From ChEMBL document CHEMBL1152731, “Design, synthesis, and anti-HIV activity of 4'-modified carbocyclic nucleoside phosphonate reverse transcriptase inhibitors” (Bioorg Med Chem, 2009)

Assays:
[1] = Cytotoxicity against human MT2 cells after 5 days; assay type: cell-based
[2] = tested on: Human immunodeficiency virus 1; experiment: Antiviral activity against HIV1 3a with reverse transcriptase K65R mutation in human MT2 cells assessed as inhibition of viral-induced cytopathic effect by XTT assay relative to wild type; assay type: functional
[3] = tested on: Human immunodeficiency virus 1; experiment: Antiviral activity against HIV1 3a with reverse transcriptase M184V mutation in human MT2 cells assessed as inhibition of viral-induced cytopathic effect by XTT assay relative to wild type; assay type: functional
[4] = tested on: Human immunodeficiency virus 1; experiment: Antiviral activity against HIV1 3a infected human MT2 cells assessed as inhibition of viral-induced cytopathic effect after 3 days by XTT assay; assay type: functional, organism-based; details: Human immunodeficiency virus 1, 3a, MT2, 72 h
[5] = biological target: Human immunodeficiency virus type 1 reverse transcriptase (Human immunodeficiency virus 1, UniProt Q72547); experiment: Inhibition on HIV1 reverse transcriptase p66/p51

SMILES | CC50 at 120 h [1] [µM] | fold change (FC) [2] | fold change (FC) [3] | EC50 [4] [µM] | IC50 [5] [µM]
Nc1ncnc2c1ncn2[C@H]1C=C[C@@H](OCP(=O)(O)O)O1 | > 1000 | 2.9 | 2.9 | – | –
Nc1ncnc2c1ncn2[C@H]1C=C[C@@H](OCP(=O)(O)O)C1 | – | – | – | 52 | –
C[C@@]1(OCP(=O)(O)O)C=C[C@H](n2cnc3c(N)ncnc32)C1 | – | – | – | 244 | –
C=C[C@@]1(OCP(=O)(O)OP(=O)(O)OP(=O)(O)O)C=C[C@H](n2cnc3c(N)ncnc32)C1 | – | – | – | – | 0.62
C#C[C@@]1(OCP(=O)(O)O)C=C[C@H](n2cnc3c(N)ncnc32)C1 | 1450 | 2.2 | >30 | 16 | 0.13
Nc1nc(NC2CC2)c2ncn([C@H]3C=C[C@@H](CO)C3)c2n1 [ABACAVIR] | – | 3.8 | 7.1 | 0.32 | 0.13
Nc1ncnc2c1ncn2[C@@H]1O[C@H](OCP(=O)(O)O)C=C1F [GS-9148] | > 1000 | 1.1 | 0.8 | – | –
C[C@H](Cn1cnc2c(N)ncnc21)OCP(=O)(O)O [TENOFOVIR ANHYDROUS] | > 1000 | 4.3 | 0.7 | – | –
Cc1cn([C@H]2C[C@H](N=[N+]=[N-])[C@@H](CO)O2)c(=O)[nH]c1=O [ZIDOVUDINE] | > 200 | 1.2 | 0.7 | – | –
